Assay results: patent US8802597B2, “Herbicidal pyrimidines” (E I du Pont de Nemours and Company, priority 2003, dated 2014)

Key:
Type in all cases: in vivo
[1] = tested on: Russian thistle (Salsola kali); assay: Test G pre/postemergence
Method in brief: (§1)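 Pre- and postemergence greenhouse test; compound in non-phytotoxic solvent/surfactant mix. Post timing: 2–18 cm plants, 1- to 4-leaf. Visual rating vs controls at 12–21 d, 0 (no effect) to 100 (complete control).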

[2] = tested on: common groundsel (Senecio vulgaris); assay: Test G pre/postemergence
Method in brief: as §1

kochia (Kochia scoparia) = assay: Test G pre/postemergence
Method in brief: as §1

[3] = tested on: grape (Vitus vinifera) vines; assay: Test G post-directed application; settings: 1500 g ai/ha, scale 0 to 100
Experimental: (§2) At a different time, established container-grown grape (Vitus vinifera) vines, and olive (Olea europaea) and orange (Citrus sinensis) trees were treated with some of the test chemicals formulated in the same manner and applied to the soil surface and the lower 5 cm of the plant vines or trunks (post-directed application). Plants ranged in height from 30 to 100 cm. The applications were made using a hand sprayer delivering a volume of 990 L/ha. Treated plants and controls were maintained in a greenhouse for 28 days, after which time the treated plants were compared to controls and visually evaluated.
(§3) Plant response ratings, summarized in Table G, are based on a scale of 0 to 100 where 0 is no effect and 100 is complete control. A dash (-) response means no test result.

[4] = tested on: olive (Olea europaea) trees; assay: Test G post-directed application; settings: scale 0 to 100
Experimental: as §2, §3

[5] = tested on: orange (Citrus sinensis) trees; assay: Test G post-directed application; settings: 1500 g ai/ha, scale 0 to 100
Experimental: as §2, §3

[6] = tested on: sugarcane (Saccharum officinarum); assay: Test G sugarcane pre/postemergence
Excerpt: Also at a different time, seed pieces (nodes) of sugarcane (Saccharum officinarum) were planted and treated preemergence and/or postemergence with some of the test chemicals formulated in the same manner. Treated plants and controls were maintained in a greenhouse for 14 days, after which time the treated plants were compared to controls and visually evaluated.
as §3

[7] = tested on: sulfonylurea herbicide-resistant (SU-resistant) catchweed bedstraw (GALAP; Galium aparine); assay: Test K postemergence; settings: 15 days
Experimental: (§4) Seeds of plant species selected from sulfonylurea herbicide-susceptible (SU-susceptible) and sulfonylurea herbicide-resistant (SU-resistant) catchweed bedstraw (GALAP; Galium aparine) and wheat (TRZAW; Triticum aestivum) were treated with postemergence applications of test chemicals formulated in a non-phytotoxic solvent mixture which included a surfactant. Plants were treated at the 2-3 leaf stage and 2 whorl stage for wheat and catchweed bedstraw, respectively. Treated plants and controls were maintained in a controlled growth environment for 15 days after which time all species were compared to controls and visually evaluated. Plant response ratings, summarized in Table K, are based on a scale of 0 to 100 where 0 is no effect and 100 is complete control. A dash (-) response means no test result.

[8] = tested on: sulfonylurea herbicide-susceptible (SU-susceptible) catchweed bedstraw (GALAP; Galium aparine); assay: Test K postemergence; settings: 15 days
Experimental: as §4

[9] = tested on: wheat (TRZAW; Triticum aestivum); assay: Test K postemergence; settings: 15 days
Experimental: as §4

[10] = Postemergence, 250 g ai/ha, scale 0 to 100
[11] = Postemergence, 62 g ai/ha, scale 0 to 100
[12] = Postemergence, 125 g ai/ha, scale 0 to 100
[13] = Postemergence, 375 g ai/ha, scale 0 to 100
[14] = Preemergence, 62 g ai/ha, scale 0-100
[15] = Preemergence, 125 g ai/ha, scale 0-100
[16] = Preemergence, 250 g ai/ha, scale 0-100
[17] = Preemergence, 500 g ai/ha, scale 0-100
[18] = Preemergence, 500 g ai/ha, scale 0 to 100
[19] = Postemergence, 500 g ai/ha, scale 0 to 100
[20] = Postemergence, 31 g ai/ha, scale 0 to 100

## CCOC(=O)c1nc(C2CC2)nc(N)c1Br [Compound 1, ethyl 6-amino-5-bromo-2-cyclopropyl-4-pyrimidinecarboxylate]
[1]; [10]
  Plant response rating, Russian Thistle: 100
[1]; [11]
  Plant response rating, Russian Thistle: 100
[1]; [12]
  Plant response rating, Russian Thistle: 100
[1]; [13]
  Plant response rating, Russian Thistle: 100
[1]; [14]
  Plant response rating, Russian Thistle: 100
[1]; [15]
  Plant response rating, Russian Thistle: 100
[1]; [16]
  Plant response rating, Russian Thistle: 100
[1]; [17]
  Plant response rating, Russian Thistle: 100
[1]; [18]
  Plant response rating, Russian Thistle: 100
[2]; [10]
  Plant response rating, Groundsel: 95
[2]; [19]
  Plant response rating, Groundsel: 100
[2]; [11]
  Plant response rating, Groundsel: 60
[2]; [12]
  Plant response rating, Groundsel: 95
[2]; [13]
  Plant response rating, Groundsel: 100
[2]; [14]
  Plant response rating, Groundsel: 60
[2]; [15]
  Plant response rating, Groundsel: 100
[2]; [16]
  Plant response rating, Groundsel: 100
[2]; [18]
  Plant response rating, Groundsel: 100
[2]; Preemergence, 375 g ai/ha, scale 0 to 100
  Plant response rating, Groundsel: 100
Kochia (Kochia scoparia); [13]
  Plant response rating, Kochia: 95
Kochia (Kochia scoparia); [14]
  Plant response rating, Kochia: 100
Kochia (Kochia scoparia); [15]
  Plant response rating, Kochia: 100
Kochia (Kochia scoparia); [16]
  Plant response rating, Kochia: 100
Kochia (Kochia scoparia); [17]
  Plant response rating, Kochia: 100
Kochia (Kochia scoparia); [18]
  Plant response rating, Kochia: 100
[3]
  Plant response rating, Grape: 100
[4]; 1500 g ai/ha
  Plant response rating, Olive: 50
[5]
  Plant response rating, Orange: 50
[6]; [10]
  Plant response rating, Sugarcane: 13
[6]; [19]
  Plant response rating, Sugarcane: 38
[6]; [20]
  Plant response rating, Sugarcane: 0
[6]; [11]
  Plant response rating, Sugarcane: 0
[6]; [12]
  Plant response rating, Sugarcane: 3
[6]; [14]
  Plant response rating, Sugarcane: 0
[6]; [15]
  Plant response rating, Sugarcane: 0
[6]; [16]
  Plant response rating, Sugarcane: 0
[6]; Preemergence, 375 g ai/ha, scale 0-100
  Plant response rating, Sugarcane: 0
[7]; 4 g a.i./ha
  Plant response rating (0 to 100 scale): 100
[7]; 8 g a.i./ha
  Plant response rating (0 to 100 scale): 100
[7]; 16 g a.i./ha
  Plant response rating (0 to 100 scale): 100
[7]; 31 g a.i./ha
  Plant response rating (0 to 100 scale): 100
[7]; 62 g a.i./ha
  Plant response rating (0 to 100 scale): 100
[7]; 125 g a.i./ha
  Plant response rating (0 to 100 scale): 100
[8]; 4 g a.i./ha
  Plant response rating (0 to 100 scale): 63
[8]; 8 g a.i./ha
  Plant response rating (0 to 100 scale): 80
[8]; 16 g a.i./ha
  Plant response rating (0 to 100 scale): 98
[8]; 31 g a.i./ha
  Plant response rating (0 to 100 scale): 98
[8]; 62 g a.i./ha
  Plant response rating (0 to 100 scale): 100
[8]; 125 g a.i./ha
  Plant response rating (0 to 100 scale): 100
[9]; 4 g a.i./ha
  Plant response rating (0 to 100 scale): 0
[9]; 8 g a.i./ha
  Plant response rating (0 to 100 scale): 0
[9]; 16 g a.i./ha
  Plant response rating (0 to 100 scale): 0
[9]; 31 g a.i./ha
  Plant response rating (0 to 100 scale): 25
[9]; 62 g a.i./ha
  Plant response rating (0 to 100 scale): 30
[9]; 125 g a.i./ha
  Plant response rating (0 to 100 scale): 38

## CCOC(=O)c1nc(C2CC2)nc(N)c1Cl [Compound 4, ethyl 6-amino-5-chloro-2-cyclopropyl-4-pyrimidinecarboxylate]
[1]; [15]
  Plant response rating, Russian Thistle: 100
[1]; [16]
  Plant response rating, Russian Thistle: 100
[1]; [18]
  Plant response rating, Russian Thistle: 100
[2]; [14]
  Plant response rating, Groundsel: 95
[2]; [15]
  Plant response rating, Groundsel: 95
[2]; [16]
  Plant response rating, Groundsel: 100
[2]; [18]
  Plant response rating, Groundsel: 100
[3]
  Plant response rating, Grape: 100
[4]; 900 g ai/ha
  Plant response rating, Olive: 50
[5]
  Plant response rating, Orange: 75

## COC(=O)c1nc(C2CC2)nc(N)c1Cl [Compound 9, methyl 6-amino-5-chloro-2-cyclopropyl-4-pyrimidinecarboxylate]
[6]; [10]
  Plant response rating, Sugarcane: 7
[6]; [19]
  Plant response rating, Sugarcane: 17
[6]; [20]
  Plant response rating, Sugarcane: 0
[6]; [11]
  Plant response rating, Sugarcane: 0
[6]; [12]
  Plant response rating, Sugarcane: 0
[7]; 4 g a.i./ha
  Plant response rating (0 to 100 scale): 100
[7]; 8 g a.i./ha
  Plant response rating (0 to 100 scale): 100
[7]; 16 g a.i./ha
  Plant response rating (0 to 100 scale): 100
[7]; 31 g a.i./ha
  Plant response rating (0 to 100 scale): 100
[7]; 62 g a.i./ha
  Plant response rating (0 to 100 scale): 100
[7]; 125 g a.i./ha
  Plant response rating (0 to 100 scale): 100
[8]; 4 g a.i./ha
  Plant response rating (0 to 100 scale): 75
[8]; 8 g a.i./ha
  Plant response rating (0 to 100 scale): 100
[8]; 16 g a.i./ha
  Plant response rating (0 to 100 scale): 100
[8]; 31 g a.i./ha
  Plant response rating (0 to 100 scale): 100
[8]; 62 g a.i./ha
  Plant response rating (0 to 100 scale): 100
[8]; 125 g a.i./ha
  Plant response rating (0 to 100 scale): 100
[9]; 4 g a.i./ha
  Plant response rating (0 to 100 scale): 0
[9]; 8 g a.i./ha
  Plant response rating (0 to 100 scale): 20
[9]; 16 g a.i./ha
  Plant response rating (0 to 100 scale): 25
[9]; 31 g a.i./ha
  Plant response rating (0 to 100 scale): 38
[9]; 62 g a.i./ha
  Plant response rating (0 to 100 scale): 38
[9]; 125 g a.i./ha
  Plant response rating (0 to 100 scale): 40
